Paper PMC9241925, “DWV 3C Protease Uncovers the Diverse Catalytic Triad in Insect RNA Viruses” (Microbiology Spectrum, 2022)
Like-named read-outs stand apart in the source and are kept apart here. Primed or numbered codes have the meaning given here. *: point of attachment. Dabcyl′ = CN(C)c1ccc(/N=N/c2ccc(C(=O)*)cc2)cc1; EDANS = O=S(=O)(O)c1cccc2c(NCCN*)cccc12

Key:
[1] = target: T1, DWV 3C protease (GST-DWV 3C^pro) (Deformed wing virus, UniProt Q8B3M2); assay: FRET protease assay of GST-DWV 3C^pro with fluorogenic peptide substrate; type: biochemical; conditions: for IC50: pH 6.0, 33°C, n = 3, read-out: IC50 of DWV 3C^pro inhibitors; for Dependence of DWV 3C^pro inhibition on dithiothreitol: absence vs presence of 2 mM DTT
T1 construct: cDNA corresponding to amino acid 2094–2353 of DWV polyprotein; made in house; host or cells: E. coli BL21
T1 sequence (Q8B3M2 2094-2353): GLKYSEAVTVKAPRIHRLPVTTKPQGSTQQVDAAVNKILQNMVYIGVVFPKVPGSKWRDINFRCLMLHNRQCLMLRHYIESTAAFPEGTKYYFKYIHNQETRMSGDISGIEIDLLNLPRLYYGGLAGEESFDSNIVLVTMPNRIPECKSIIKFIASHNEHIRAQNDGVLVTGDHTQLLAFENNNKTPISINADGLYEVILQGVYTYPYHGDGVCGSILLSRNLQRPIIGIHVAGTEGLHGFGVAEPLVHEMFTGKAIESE
Description: Dabcyl-PVQAKPEMDNPNPGE-Edans derived from the cleavage site between L-protein and VP2 (underlined, 205-218 of polyprotein) was used as a peptide substrate to measure the protease activity. E was added to the C-terminus to link Edans. FRET experiments were performed with Varioskan LUX multimode microplate reader (Thermo Fisher). We measured 100 μL of reaction mixture with 50 mM Citrate buffer, pH 6.0, 150 mM NaCl, 2 mM EDTA, 2 mM DTT containing 1 μM GST-DWV 3C^pro and 20 μM fluorogenic peptide substrate in a 96-well flat-bottom white microplate at 33°C. The relative fluorescence was measured using an excitation wavelength of 336 nm and by monitoring the emission at 490 nm every 3 min for 30 min. In order to determine the optimal reaction condition for GST-DWV 3C^pro, various pH values, temperatures, and DTT concentrations were used. To test the effect of DTT on the activity, the protein dialyzed against TNE buffer was used. To determine the velocity of product formation, we precalibrated the instrument with the free Edans standard in the presence of 20 μM Dabcyl to calculate the relationship between relative fluorescence and substrate concentration. We calculated the kinetic parameters, Km, Vmax, and catalytic efficiency (Kcat/Km) assuming Michaelis-Menten kinetics for the cleavage of peptide.
To identify the inhibitors for DWV 3C^pro, various concentrations of the tested compounds were added. To determine the inhibitory effects of the various compounds, we preincubated the compound and enzyme on ice for 10 min prior to addition of the peptide substrate. To analyze the effects of ebselen, disulfiram, and carmofur, we used the enzyme dialyzed against TNE buffer and carried out the reaction with or without DTT. We determined the initial velocities of the enzymatic reactions and fitted to a sigmoidal dose-response equation with nonlinear regression analysis using GraphPad Prism 9. The data from three independent assays were used to determine IC50 value of each compound.

[2] = system: main protease of SARS-CoV-2; conditions: by covalently modifying cysteine in the catalytic diad; cited from earlier work
DWV [3] = assay: DWV replication (RdRP precursor synthesis, Western blot) in DWV-infected honey bee pupal head cells; type: cell-based, Deformed wing virus (DWV)
Description: Honey bee pupae with pale/pink eyes were collected from a mite-free colony. They were surface sterilized by washing with 10% bleach followed by sterile PBS three times (5 min for each wash). Heads from the pupae were dissected and homogenized seven times with 1 mL Grace culture medium using Dounce homogenizer (Loose fitting). The homogenate was then filtered through a cell strainer (Falcon) and the number of cells was counted. 10^6 cells were suspended in 100 μL of Grace medium containing 10% FBS, antibiotics (penicillin and streptomycin), and ebselen at the indicated concentration with or without DWV (MOI: 10) in 24-well plate at 33°C for 1 h. DWV used for this study was one of type A strains (VD-B7) we previously isolated from Varroa mite-infested pupa ([8]). […]
After DWV infection, the pupal head cells were collected by centrifugation, and then homogenized with 150 μL of RIPA buffer (20 mM Tris-HCl, pH 7.5, 150 mM NaCl, 1% NP-40, 0.5% sodium deoxycholate, 0.1% SDS) containing protease inhibitor cocktail. After centrifugation of the homogenate, the protein concentration of supernatant was measured using Enhanced BCA protein assay kit. The cell lysate with 20 μg of protein was analyzed by Western blot for each sample. […] Band intensity of 97 kDa RdRP precursor was measured by image-J.

[4] = system: honey bee pupal head cells; assay: Cell viability of honey bee pupal head cells (CellTiter-Lumi, intracellular ATP); type: cell-based, honey bee (Apis mellifera)
Description: Honey bee pupal head cells were prepared as described above and 100 μL cell suspension (2 × 10^6/mL) was inoculated to each well in 96-well plate. The cells were cultured in the presence of either DMSO or ebselen at the indicated concentrations at 33°C for 16 h. The cultured plate was first incubated at room temperature for 10 min followed by adding 100 μL of reagent solution (CellTiter-Lumi Luminescent Cell Viability assay kit, Beyotime). The plate was shaken at room temperature for 2 min to promote cell lysis, and then further incubated for 10 min to stabilize the chemiluminescence signal. The signal was detected using Varioskan LUX multimode microplate reader and depends on intracellular ATP level, thus the relative viability of cells.

DWV [5] = system: DWV; design: method as in PMID 33643262; conditions: based on the synthesis of RdRP, cited from earlier work
enterovirus 3C^pro = system: enterovirus 3C^pro; design: method as in PMID 21813612, PMID 27645381, PMID 10197965; conditions: cited from earlier work
human rhinovirus 3C^pro = system: human rhinovirus 3C^pro; design: method as in PMID 21813612, PMID 27645381, PMID 10197965; conditions: cited from earlier work
[6] = tested in the presence of 2 mM DTT, 1 μM enzyme, 20 μM peptide substrate
[7] = compounds tested with or without 2 mM DTT and only effective without DTT
[8] = peptide substrate 2-20 μM, Michaelis-Menten

Compound | IC50 [1, 6] [µM] | Dependence of DWV 3C^pro inhibition on dithiothreitol [1] | IC50 [1, 7] [µM] | Inhibition of the main protease of SARS-CoV-2 [2] | also measured
O=C1C(Cl)=C(Cl)C(=O)c2ncccc21 [6,7-dichloroquinoline-5,8-dione] | 129 ± 1.8 |  |  |  | 
CCCCCCNC(=O)n1cc(F)c(=O)[nH]c1=O [Carmofur] |  | only effective without dithiothreitol | 127 ± 6.2 | inhibit the main protease of SARS-CoV-2 | 
CCN(CC)C(=S)SSC(=S)N(CC)CC [Disulfiram] |  | only effective without dithiothreitol | 35.6 ± 0.8 | inhibit the main protease of SARS-CoV-2 | 
O=c1c2ccccc2[se]n1-c1ccccc1 [Ebselen] |  | only effective without dithiothreitol | 1.66 ± 0.02 | inhibit the main protease of SARS-CoV-2 | Synthesis of the 97 kDa precursor of RdRP and 3C^pro (DWV [3]; DWV-infected pupal head cells, MOI 10, 33°C, 16 h, increasing ebselen concentrations vs DMSO): decreased the synthesis of the 97 kDa precursor of RdRP and 3C^pro in a concentration-dependent manner; DWV replication in honey bee cells (DWV [3]; cultured honey bee cells): inhibited DWV replication; Toxicity to honey bee cells [4]: toxic to the cells; Cell viability (luminescence) vs DMSO ([4]; 30 μM, 16 h, 33°C): no significant difference; Cell viability ([4]; 100 and 250 μM, 16 h, 33°C, vs DMSO): cell viability was reduced
CC(C)C[C@H](NC(=O)OCc1ccccc1)C(=O)N[C@@H](CC1CCNC1=O)C(O)S(=O)(=O)O (some centres unmarked) [GC376] | 55.2 ± 4 |  |  |  | 
O=c1c(O)c(-c2ccc(O)c(O)c2)oc2cc(O)cc(O)c12 [Quercetin] | 430 ± 62.8 |  |  |  | DWV replication in honey bee pupal cells (DWV [5]): inhibited DWV replication
CCOC(=O)/C=C/[C@H](C[C@@H]1CCNC1=O)NC(=O)[C@@H](CC(=O)[C@@H](NC(=O)c1cc(C)on1)C(C)C)Cc1ccc(F)cc1 [Rupintrivir] | 0.36 ± 0.03 |  |  |  | IC50 (enterovirus 3C^pro): 1.65 to 7.3 µM; IC50 (human rhinovirus 3C^pro): 5 nM; DWV replication in honey bee pupal cells (DWV [5]): inhibited DWV replication; DWV replication in honey bee pupal cells (DWV [5]; listed as rupintrivir): suppresses DWV replication
[Zn] [Zinc, zinc] | 15200 ± 422 |  |  |  | 
PVQAKPEMDNPNPGE ({Dabcyl′}-PVQAKPEMDNPNPGE-{EDANS}) [Dabcyl-PVQAKPEMDNPNPGE-Edans, 15 amino acid fluorogenic FRET peptide substrate with the DWV L-protein/VP2 cleavage site] |  |  |  |  | Km [1, 8]: 4.23 ± 0.256 µM; Vmax [1, 8]: 0.2538 ± 0.0067 µM/min
